Source: patent publication US20260102383A1, “LPAR1 Inhibitors” (AbbVie Inc., priority 2024, published 2026)

molecular target: T1, human LPAR1 (Homo sapiens, UniProt Q92633); test: Arrestin assay (Arrestin Reporter EDG2-bla U2OS), inhibition of LPA-stimulated signal; assay type: cell-based; details: TangoEDG2-bla U2OS cells expressing human LPAR1; 0.25 μM LPA; read-out: Arrestin Reporter EDG2-bla U2OS Human Merged IC50
T1 construct: host or cells: TangoEDG2-bla U2OS cells
Method in brief: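 TangoEDG2-bla U2OS cells (1×10^4/well, plated 18-20 h) were preincubated 1 h at 37 °C with compound (12-point, 3-fold, 10 μM to 0.00006 μM), then stimulated 3 h with 0.25 μM LPA final. LiveBLAzer FRET B/G 460/530 nm emission ratio gave % inhibition; IC50 from 4-parameter variable-slope fit.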

T1 sequence (Q92633 whole entry): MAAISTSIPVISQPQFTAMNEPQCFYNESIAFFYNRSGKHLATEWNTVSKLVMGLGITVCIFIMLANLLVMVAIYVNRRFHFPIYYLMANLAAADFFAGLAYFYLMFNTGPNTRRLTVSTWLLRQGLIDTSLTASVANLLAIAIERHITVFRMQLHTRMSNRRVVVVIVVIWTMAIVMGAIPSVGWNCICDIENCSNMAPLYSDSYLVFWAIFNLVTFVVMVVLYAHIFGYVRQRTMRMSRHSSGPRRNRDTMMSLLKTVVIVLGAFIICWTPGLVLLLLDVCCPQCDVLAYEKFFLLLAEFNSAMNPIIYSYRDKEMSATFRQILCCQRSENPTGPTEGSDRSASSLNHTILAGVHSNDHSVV

SMILES	IC50 [nM]
CC(C)c1ccnn1C1(C(=O)Nc2ccc(Cl)cc2OC(F)F)CCN(CC2(C(=O)O)CCN(C(=O)O[C@H]3CCOC3)CC2)CC1 [Compound 109]	94.9
CC(C)c1ccnn1C1(C(=O)Nc2ccc(Cl)cc2OC(F)F)CCN(CC2(C(=O)O)CCN(C(=O)O[C@@H]3CCOC3)CC2)CC1 [Compound 110, 4-[[4-[[4-chloro-2-(difluoromethoxy)phenyl]carbamoyl]-4-(5-isopropylpyrazol-1-yl)-1-piperidyl]methyl]-1-[(3R)-tetrahydrofuran-3-yl]oxycarbonyl-piperidine-4-carboxylic acid]	75.5
CC(C)c1ccnn1C1(C(=O)Nc2ccc(Cl)cc2OC(F)F)CCN([C@H]2C[C@](C#N)(C(=O)O)C2)CC1 [Compound 111, (1r,3r)-3-[4-[[4-chloro-2-(difluoromethoxy)phenyl]carbamoyl]-4-(5-isopropylpyrazol-1-yl)-1-piperidyl]-1-cyano-cyclobutanecarboxylic acid]	221
CC(C)c1ccnn1C1(C(=O)Nc2ccc(Cl)cc2OC(F)F)CCN([C@H]2C[C@@](C#N)(C(=O)O)C2)CC1 [Compound 112, (1s,3s)-3-[4-[[4-chloro-2-(difluoromethoxy)phenyl]carbamoyl]-4-(5-isopropylpyrazol-1-yl)-1-piperidyl]-1-cyano-cyclobutanecarboxylic acid]	309
CC(C)c1ccnn1C1(C(=O)Nc2ccc(Cl)cc2OC(F)F)CCN(C2COC(C(=O)O)C2)CC1 (stereo not drawn) [Compound 113, 4-[4-[[4-chloro-2-(difluoromethoxy)phenyl]carbamoyl]-4-(5-isopropylpyrazol-1-yl)-1-piperidyl]tetrahydrofuran-2-carboxylic acid]	141
CC1(C)CCc2cnn(C3(C(=O)Nc4ccc(Cl)cc4OC(F)F)CCN(C[C@@H]4CC[C@H]4C(=O)O)CC3)c21 [Compound 115, (1R.2R)-2-[[4-[[4-chloro-2-(difluoromethoxy)phenyl]carbamoyl]-4-(6,6-dimethyl-4,5-dibydrocyclopenta[c]pyrazol-1-yl)-1-piperidyl]methyl] cyclobutanecarboxylic acid]	82.5
CC(C)c1ccnn1C1(C(=O)Nc2ccc(Cl)cc2OC(F)F)CCN(CC(C(=O)O)N2CCOCC2)CC1 (stereo not drawn) [Compound 116, 3-[4-[[4-chloro-2-(difluoromethoxy)phenyl]carbamoyl]-4-(5-isopropylpyrazol-1-yl)-1-piperidyl]-2-morpholino-propanoic acid]	129
C=C(CN1CCC(C(=O)Nc2ccc(Cl)cc2OC(F)F)(n2nccc2C(C)C)CC1)C(C)(C)C(=O)O [Compound 117, 3-[[4-[[4-chloro-2-(difluoromethoxy)phenyl]carbamoyl]-4-(5-isopropylpyrazol-1-yl)-1-piperidyl]methyl]-2,2-dimethyl-but-3-enoic acid]	49

Further lines, results first:

IC50 [nM]	SMILES
20.8	COC[C@H](CN1CCC(C(=O)Nc2ccc(Cl)cc2OC(F)F)(n2nccc2C(C)C)CC1)C(=O)O [Compound 118, (2S)-2-[[4-[[4-chloro-2-(difluoromethoxy)phenyl]carbamoyl]-4-(5-isopropylpyrazol-1-yl)-1-piperidyl]methyl]-3-methoxy-propanoic acid]
34.7	CC(C)c1ccnn1C1(C(=O)Nc2ccc(Cl)cc2OC(F)F)CCN(CC(CO)C(=O)O)CC1 (stereo not drawn) [Compound 120, 2-[[4-[[4-chloro-2-(difluoromethoxy)phenyl]carbamoyl]-4-(5-isopropylpyrazol-1-yl)-1-piperidyl]methyl]-3-hydroxy-propanoic acid]
48.8	CC(C)c1ccnn1C1(C(=O)Nc2ccc(Cl)cc2OC(F)F)CCN(C2CC(O)(C(=O)O)C2)CC1 (stereo not drawn) [Compound 121, 3-[4-[[4-chloro-2-(difluoromethoxy)phenyl]carbamoyl]-4-(5-isopropylpyrazol-1-yl)-1-piperidyl]-1-hydroxy-cyclobutanecarboxylic acid]
23.9	CC[C@H](CN1CCC(C(=O)Nc2ccc(Cl)cc2OC(F)F)(n2nccc2C(C)C)CC1)C(=O)O [Compound 122, (2R)-2-[[4-[[4-chloro-2-(difluoromethoxy)phenyl]carbamoyl]-4-(5-isopropylpyrazol-1-yl)-1-piperidyl]methyl]butanoic acid]
